How the values were obtained:
IL-4 = IL-4 production, Con A, spleen; assay type: cell-based, mice; settings: 5 μM, 72 h
Experimental: (§1) Peritoneal macrophage or splenocytes (lymphocytes and macrophage) were harvested from donor mice using standard techniques. Cells were placed in culture and stimulated with either LPS (10 μg/mL) or concanavalin A 5 μg/mL (Sigma Chemical Co., St Louis, Mo.) in RPMI-1640 medium supplemented with antibiotics, […] 2-mercaptoethanol, 10 mm HEPES buffer and 10% fetal calf serum (FCS) (see Holan et al., 1985) to stimulate macrophage and T-cells respectively. Compounds were added from DMSO stock solutions to a final concentration of 50 μM or less with DMSO not exceeding 1% of total volume. After 72 h, cell supernatant was recovered and the cytokine levels were estimated by ELISA. The effect of compounds on cytokine production was recorded as follows: […]

T cells = assay: Proliferation of Con A-stimulated T cells; assay type: cell-based, mice; settings: 10 μM
Experimental: as §1

IL-1β = IL-1β production by LPS-stimulated macrophages; assay type: cell-based, mice; settings: 5 μM, 72 h
Experimental: as §1

B cells = assay: Proliferation of LPS-stimulated B cells; assay type: cell-based, mice; settings: 10 μM
IL-10 [1] = assay: IL-10 production by LPS-stimulated murine peritoneal macrophage (ELISA); assay type: cell-based, mice; settings: murine peritoneal macrophage
Experimental: as §1

IL-17 = IL-17 gene expression in murine pancreatic cancer tumours (real time PCR); assay type: in vivo, mice; settings: tumour mRNA; daily i.p. 10 μmol/kg; vehicle 17.8
Experimental: (§2) For treatment of pancreatic cancer, mice susceptible to pancreatic cancer were observed until cancer was apparent. Thereafter, animals were classified by ultrasound to a group of similar tumour size and were allocated to treatments: Vehicle, Gemcitabine 100 mg/kg every 5th day, or Gemcitabine plus the IL-10 inhibitor 43j ([…] i.p.), or the IL-12 stimulant 49 (10 μmol/kg/day i.p.) or all three combined at the doses specified.
(§3) Murine pancreatic cancer was induced as in Example 61. Mice carrying tumours were selected when the tumour was first detectable by ultrasound and the animals allocated to groups treated with either Vehicle, 49 alone or 43J alone or the combination of 49 and 43j. Compounds were supplied daily i.p. at 10 μmol/kg. Gene expression as determined by mRNA levels is determined by real time PCR methods using reverse transcribed templates.

IL-10 [2] = assay: IL-10 production by bone marrow derived macrophage or tumour associated macrophage; assay type: cell-based, C57BL/6 mice; settings: 1 or 10 μM; stimulant such as LPS or TNFa or tumour conditioned medium
Experimental: (§4) A similar experiment can be performed using Bone marrow derived macrophage or Tumour associated macrophage (TAM): Mouse macrophages were derived from the bone marrow of WT, C57BL/6 mice and cultured for 7 d in DMEM medium supplemented with 10 ng/ml recombinant mouse M-CSF (R & D Systems). TAMs were isolated from the peritoneal cavity of mice in which IDB ovarian cancers had been growing i.p. for up to 10 wk. The macrophage are then treated with the compound to test at 1 or 10 μM in the presence of a stimulant such as LPS or TNFa or tumour conditioned medium.

IL-12 [3] = assay: IL-12 gene expression in murine pancreatic cancer tumours (real time PCR); assay type: in vivo, mice; settings: tumour mRNA; daily i.p. 10 μmol/kg; vehicle 3.1
Experimental: as §2, §3

IL-23 = IL-23 gene expression in murine pancreatic cancer tumours (real time PCR); assay type: in vivo, mice; settings: tumour mRNA; daily i.p. 10 μmol/kg; vehicle 15.2
Experimental: as §2, §3

IL-10 [4] = assay: IL-10 gene expression in murine pancreatic cancer tumours (real time PCR); assay type: in vivo, mice; settings: tumour mRNA; daily i.p. 10 μmol/kg; vehicle 21.4
Experimental: as §2, §3

IL-6 = IL-6 gene expression in murine pancreatic cancer tumours (real time PCR); assay type: in vivo, mice; settings: tumour mRNA; daily i.p. 10 μmol/kg; vehicle 22.5
Experimental: as §2, §3

IFNg = IFNg gene expression in murine pancreatic cancer tumours (real time PCR); assay type: in vivo, mice; settings: tumour mRNA; daily i.p. 10 μmol/kg; vehicle 1.0
Experimental: as §2, §3

TNFa = TNFa gene expression in murine pancreatic cancer tumours (real time PCR); assay type: in vivo, mice; settings: tumour mRNA; daily i.p. 10 μmol/kg; vehicle 15.2
Experimental: as §2, §3

IL-12 [5] = assay: IL-12 production by bone marrow derived macrophage or tumour associated macrophage; assay type: cell-based, C57BL/6 mice; settings: 1 or 10 μM; stimulant such as LPS or TNFa or tumour conditioned medium
Experimental: as §4

pancreatic cancer = assay: Survival of mice with pancreatic cancer; assay type: in vivo; settings: Gemcitabine 100 mg/kg every 5th day; 43j 10 mmol/kg/d i.p.; 49 10 μmol/kg/day i.p.
Experimental: as §2

[6] = system: Lewis Lung Carcinoma Cells (LLC); assay: Subcutaneous Lewis Lung Carcinoma tumour growth; assay type: in vivo, C57BLK6 mice; settings: 12.5 mg/kg p.o. once daily
Experimental: Lewis Lung Carcinoma Cells (LLC) are cultured by incubation in a medium which is RPMI 1640 (50%) and DMEM (50%) with a final concentration or fetal calf serum of 10%. After culture to the log phase, 10^5 cells are injected subcutaneously in […] mice. Mice are treated with substance either orally or via intraperitoneal injection.

For `CC[C@H]1OC(=O)[C@H](C)[C@@H](O[C@H]2C[C@@](C)(OC)[C@@H](O)[C@H](C)O2)[C@H](C)[C@@H](O[C@@H]2O[C@H](C)C[C@H](N(C)CCCC(=O)OCC(O)CSc3nc(-c4ccc(F)cc4)c(-c4ccncc4)[nH]3)[C@H]2O)[C@](C)(O)C[C@@H](C)CN(C)[C@H](C)[C@@H](O)[C@]1(C)O` (some centres unmarked) [Compound 43g], the “IL-4 (Con A, spleen), amount of cytokine” value (IL-4) was 125 % of control treated with solvent alone, the “Proliferation (Con A, T cells)” value (T cells) was 3 % of control treated with solvent alone and the “IL-1β (Macrophages, LPS), amount of cytokine” value (IL-1β) was 28 % of control treated with solvent alone. The “Proliferation (LPS, B cells)” value (B cells) was −1 % of control treated with solvent alone, the “IL-10 by ELISA, % of solvent treated control” value (from here on “IL-10 by ELISA, %”) (IL-10 [1]; 1.25 μM inhibitor in medium) was 26 % of solvent treated control and the “IL-10 by ELISA, %” value (IL-10 [1]; 5 μM inhibitor in medium) was −12 % of solvent treated control. The “IL-10 by ELISA, %” value (IL-10 [1]; 20 μM inhibitor in medium) was −12 % of solvent treated control.

`CC[C@H]1OC(=O)[C@H](C)[C@@H](O[C@H]2C[C@@](C)(OC)[C@@H](O)[C@H](C)O2)[C@H](C)[C@@H](O[C@@H]2O[C@H](C)C[C@H](N(C)CCCCCC(=O)OCCSc3nc(-c4ccc(F)cc4)c(-c4ccnc(NC5CCOCC5)c4)[nH]3)[C@H]2O)[C@](C)(O)C[C@@H](C)CN(C)[C@H](C)[C@@H](O)[C@]1(C)O` [Compound 43j] was tested, and the “Relative Gene expression, IL-17” value (IL-17) was 14.6, the “production of IL-10” value (IL-10 [2]) was “inhibits the production of IL-10” and the “Relative Gene expression, IL-12” value (IL-12 [3]) was 3.4. The “Relative Gene expression, IL-23” value (IL-23) was 11.0, the “Relative Gene expression, IL-10” value (IL-10 [4]) was 3.1 and the “Relative Gene expression, IL-6” value (IL-6) was 15.2. For the same molecule, the “Relative Gene expression, IFNg” value (IFNg) was 4.2 and the “Relative Gene expression, TNFa” value (TNFa) was 13.1.

With `Nc1c(C(=O)c2cccc(OCC(O)CO)c2)cnn1-c1ccc(F)cc1` (centres unmarked) [Compound 49, [5-Amino-1-(4-fluoro-phenyl)-1H-pyrazol-4-yl]-[3-(2,3-dihydroxy-propoxy)-phenyl]-methanone] the “production of IL-12” value (IL-12 [5]) was “stimulates the production of IL-12”, the “Relative Gene expression, IL-17” value (IL-17) was 15.2 and the “IL-4 (Con A, spleen), amount of cytokine” value (IL-4) was 188 % of control treated with solvent alone. The “Relative Gene expression, IL-12” value (IL-12 [3]) was 28.8, the “Relative Gene expression, IL-23” value (IL-23) was 2.1 and the “Relative Gene expression, IL-10” value (IL-10 [4]) was 8.9. For the same molecule, the “Relative Gene expression, IL-6” value (IL-6) was 18.3, the “Relative Gene expression, IFNg” value (IFNg) was 6.3 and the “Relative Gene expression, TNFa” value (TNFa) was 21.4. For the same molecule, the “IL-10 by ELISA, %” value (IL-10 [1]; 1.25 μM inhibitor in medium) was 41 % of solvent treated control, the “IL-10 by ELISA, %” value (IL-10 [1]; 5 μM inhibitor in medium) was 42 % of solvent treated control and the “IL-10 by ELISA, %” value (IL-10 [1]; 20 μM inhibitor in medium) was 13 % of solvent treated control.

With `Nc1ccn([C@@H]2O[C@H](CO)[C@@H](O)C2(F)F)c(=O)n1` [Gemcitabine] the “survival time relative to vehicle” value (pancreatic cancer) was 1.5 fold.

For `CCc1nc(-c2cccc(C)c2)c(-c2ccnc(NC(=O)c3ccccc3)c2)s1` [TAK-715], the “growth rate of the LLC tumour” value [6] was “reduction in the growth rate of the LLC tumour”.

Reference: US9617221B2, “Kinase modulators for the treatment of cancer” (Synovo GmbH, priority 2010, dated 2017)
